In patent publication US20230183237A1, “COMPETITIVE AND NONCOMPETITIVE INHIBITORS OF THE MUSCARINIC ACETYLCHOLINE RECEPTOR M5” (Vanderbilt University, priority 2020, published 2023) one finds IC50 data, which are given here for 17 compounds.

The structures appear in SMILES notation. Like-named read-outs stand apart in the source and are kept apart here.

The target in the experiment is T1, hM5 (Homo sapiens, UniProt P08912).
T1 construct: expressed in transfected cells
T1 sequence (P08912 1-532): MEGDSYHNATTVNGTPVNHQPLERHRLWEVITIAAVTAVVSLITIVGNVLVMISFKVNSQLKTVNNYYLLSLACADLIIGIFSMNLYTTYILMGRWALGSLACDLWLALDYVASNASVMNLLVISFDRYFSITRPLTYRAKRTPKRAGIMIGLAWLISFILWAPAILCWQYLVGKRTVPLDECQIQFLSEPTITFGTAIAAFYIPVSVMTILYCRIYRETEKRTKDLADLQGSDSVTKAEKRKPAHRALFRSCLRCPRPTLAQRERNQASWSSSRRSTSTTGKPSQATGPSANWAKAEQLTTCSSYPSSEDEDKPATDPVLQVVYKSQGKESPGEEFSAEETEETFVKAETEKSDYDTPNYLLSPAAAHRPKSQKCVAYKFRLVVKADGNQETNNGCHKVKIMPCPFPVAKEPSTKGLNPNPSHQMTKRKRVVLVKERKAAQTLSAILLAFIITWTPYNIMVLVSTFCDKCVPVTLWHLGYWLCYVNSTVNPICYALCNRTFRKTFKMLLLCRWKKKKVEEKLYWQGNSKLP
Briefly: Calcium mobilization concentration-response (IC50 vs EC80 acetylcholine), CHO hM5. The format is cell-based. The following applies: CELL LINE hM5, read-out: IC50. In outline:
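CHO cells stably expressing hM5, dye-loaded, in HBSS/20 mM HEPES/2.5 mM probenecid, pH 7.4. Compounds were pre-incubated 140 s before an EC80 acetylcholine challenge, with calcium flux read kinetically.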

The mark [1] stands for this setting: calcium mobilization, EC80 acetylcholine addition.

Turning to `Cc1cc2ncnn2cc1C1CCN(S(=O)(=O)c2c(C)nn(C)c2C(F)(F)F)CC1` [Compound 220, 6-(1-((1,3-dimethyl-5-(trifluoromethyl)-1H-pyrazol-4-yl)sulfonyl)piperidin-4-yl)-7-methyl-[1,2,4]triazolo[1,5-a]pyridine], the IC50 under setting [1] came out at 0.038 µM.
Still for that read-out and setting: next, `Cc1cn2ncnc2cc1C1CCN(S(=O)(=O)c2cnn(C)c2C)CC1` [Compound 222, 7-(1-((1,5-Dimethyl-1H-pyrazol-4-yl)sulfonyl)piperidin-4-yl)-6-methyl-[1,2,4]triazolo[1,5-a]pyridine]: 0.276 µM.
With `Cc1c(S(=O)(=O)N2CCC(c3ccc4ncnn4c3)CC2)cnn1C` [Compound 288, 6(1-((1,5-dimethyl-1H-pyrazol-4-yl)sulfonyl)piperidin-4-yl)-[1,2,4]triazolo[1,5-a]pyridine], under setting [1], the IC50 turned out to be 0.358 µM.
On the same count and under the same terms, next, `Cc1cc2c(cc1C1CCN(S(=O)(=O)c3cnc(C)n3C)CC1)OCO2` [Compound 373, 1-((1,2-dimethyl-1H-imidazol-5-yl)sulfonyl)-4-(6-methylbenzo[d][1,3]dioxol-5-yl)piperidine]: 0.013 µM; `O=S(=O)(c1cnc2ccccn12)N1CCC(c2cn3ncnc3cc2F)CC1` [Compound 327, 7-fluoro-6-(1-(imidazo[1,2-a]pyridin-3-ylsulfonyl)piperidin-4-yl)-[1,2,4]triazolo[1,5-a]pyridine]: 0.774 µM.
On to `Cn1cc(S(=O)(=O)N2CCC(c3cn4ncnc4cc3F)CC2)nn1` [Compound 571, 7-fluoro-6-(1-((1-methyl-1H-1,2,3-triazol-4-yl)sulfonyl)piperidin-4-yl)-[1,2,4]triazolo[1,5-a]pyridine], for which the 50% inhibitory concentration (IC50) (vs EC80 acetylcholine) was above 10 µM.
On the same count and under the same terms, next, `O=S(=O)(c1cnn2ccccc12)N1CCC(c2cn3ncnc3cc2Cl)CC1` [Compound 544, 7-chloro-6-(1-(pyrazolo[1,5-a]pyridin-3-ylsulfonyl)piperidin-4-yl)-[1,2,4]triazolo[1,5-a]pyridine]: 0.015 µM; `[2H]c1nc2cc(Cl)c(C3=CCN(S(=O)(=O)c4cnc(C)s4)CC3)cn2n1` [Compound 611, 5-((4-(7-chloro-[1,2,4]triazolo[1,5-a]pyridin-6-yl-2-d)-3,6-dihydropyridin-1(2H)-yl)sulfonyl)-2-methylthiazole]: 0.097 µM; `CCc1cc2ncnn2cc1C1CCN(S(=O)(=O)c2cnn(C)c2OC)CC1` [Compound 584, 7-ethyl-6-(1-((5-methoxy-1-methyl-1H-pyrazol-4-yl)sulfonyl)piperidin-4-yl)-[1,2,4]triazolo[1,5-a]pyridine]: 0.077 µM.
On the same count and under the same terms, next, `Cc1ncc(S(=O)(=O)N2CCC(c3cn4ccnc4cc3C)CC2)o1` [Compound 582, 2-methyl-5-((4-(7-methylimidazo[1,2-a]pyridin-6-yl)piperidin-1-yl)sulfonyl)oxazole]: 0.831 µM; `Cc1cc(S(=O)(=O)N2CCC(F)(c3cn4ncnc4cc3C)CC2)sn1` [Compound 561, 5-((4-fluoro-4-(7-methyl-[1,2,4]triazolo[1,5-a]pyridin-6-yl)piperidin-1-yl)sulfonyl)-3-methylisothiazole]: 0.181 µM.
As to `[2H]C1([2H])Oc2cc(C)c(C3CCN(S(=O)(=O)c4cnn(C)c4Cl)CC3)cc2OC1([2H])[2H]` [Compound 390, 1-((5-chloro-1-methyl-1H-pyrdzol-4-yl)sulfonyl)-4-(7-methyl-2,3-dihydrobenzo[b][1,4]dioxin-6-yl-2,2,3,3-d4)piperidine], under setting [1], the IC50 came to 0.206 µM.
Regarding `Cc1cc2ncnn2cc1C1CCN(S(=O)(=O)c2cnn3c2NCCC3)CC1` [Compound 261, 7-methyl-6-(1-((4,5,6,7-tetrahydropyrazolo[1,5-a]pyrimidin-3-yl)sulfonyl)piperidin-4-yl)-[1,2,4]triazolo[1,5-a]pyridine], the concentration for half-maximal inhibition (IC50) under setting [1] turned out to be 0.062 µM.
Still for that read-out and setting: then `O=S(=O)(c1cnn2c1CCC2)N1CCC(c2cn3ncnc3cc2F)CC1` [Compound 232, 6-(1-((5,6-dihydro-4H-pyrrolo[1,2-b]pyrazol-3-yl)sulfonyl)piperidin-4-yl)-7-fluoro-[1,2,4]triazolo[1,5-a]pyridine], with 0.026 µM; and `Cc1c(C2=CCN(S(=O)(=O)c3cnn(C)c3C)CC2)cn2ncnc2c1Cl` [Compound 380, 8-chloro-6-(1-((1,5-dimethyl-1H-pyrazol-4-yl)sulfonyl)-1,2,3,6-tetrahydropyridin-4-yl)-7-methyl-[1,2,4]triazolo[1,5-a]pyridine], with 0.037 µM; and `O=S(=O)(c1ccc2ncsc2c1)N1CCC(c2ccc3ncnn3c2)CC1` [Compound 62, 6-((4-([1,2,4]triazolo[1,5-a]pyridin-6-yl)piperidin-1-yl)sulfonyl)benzo[d]thiazole], with above 10 µM.
Regarding `Cc1cc2ncnn2cc1C1CCN(S(=O)(=O)c2cnn(C)c2CNC(=O)c2ccccn2)CC1` [Compound 554, N-((1-Methyl-4-((4-(7-methyl-[1,2,4]triazolol[1,5-a]pyridin-6-yl)piperidin-1-yl)sulfonyl)-1H-pyrazol-5-yl)methyl)picolinamide], the 50% inhibitory concentration (IC50) (vs EC80 acetylcholine) was 0.736 µM.
